# Assay results: DBAASP
# Legend:
# Test in all cases: ≥ marks a high value that may be exact or a test limit, other limits are often not marked, values filed in µg/mL are converted to µM
# Candida albicans = test system: Candida albicans
# [1] = test system: Corynebacterium jeikeium ATCC BAA-949
# Pseudomonas aeruginosa 1 = test system: Pseudomonas aeruginosa 1
# Pseudomonas aeruginosa 2 = test system: Pseudomonas aeruginosa 2
# [2] = test system: Pseudomonas aeruginosa ATCC 15692
# [3] = test system: Pseudomonas aeruginosa ATCC 27853
# [4] = test system: Pseudomonas aeruginosa PAO1
# Pseudomonas aeruginosa = test system: Pseudomonas aeruginosa
# Escherichia coli K88 = test system: Escherichia coli K88
# [5] = test system: Escherichia coli O157:H7 CICC 21530
# [6] = test system: Lacticaseibacillus rhamnosus 1.0911
# [7] = test system: Lacticaseibacillus rhamnosus 1.0936
# [8] = test system: Lacticaseibacillus rhamnosus 1.9021
# [9] = test system: Lacticaseibacillus rhamnosus 8014
# [10] = test system: Salmonella enterica subsp. enterica serovar Choleraesuis CVCC 503
# [11] = test system: Salmonella enterica subsp. enterica serovar Pullorum C79-13
# [12] = test system: Salmonella enterica subsp. enterica serovar Typhimurium ATCC 14028
# [13] = test system: Staphylococcus aureus ATCC 29213
# [14] = test system: Staphylococcus aureus ATCC 43300
# [15] = test system: Staphylococcus epidermidis ATCC 12228
# [16] = test system: Streptococcus agalactiae BNCC 185941
# [17] = test system: Pseudomonas aeruginosa H1001
# [18] = test system: Acinetobacter baumannii CCARM 12035
# [19] = test system: Bacillus subtilis KCTC 3068
# [20] = test system: Enterococcus faecalis KCTC 2011
# [21] = test system: Escherichia coli CCARM 1229
# [22] = test system: Escherichia coli KCTC 1682
# [23] = test system: Pseudomonas aeruginosa CCARM 2095
# [24] = test system: Pseudomonas aeruginosa KCTC 1637
# [25] = test system: Salmonella typhimurium CCARM 8009
# [26] = test system: Salmonella typhimurium KCTC 1926
# [27] = test system: Staphylococcus aureus KCTC 1621
# [28] = test system: Aeromonas salmonicida 97-4
# [29] = test system: Aeromonas salmonicida 99-1
# Candida albicans C627 = test system: Candida albicans C627
# [30] = test system: Escherichia coli CGSC 4908
# Escherichia coli DC2 = test system: Escherichia coli DC2
# Escherichia coli UB1005 = test system: Escherichia coli UB1005
# [31] = test system: Pseudomonas aeruginosa K799
# [32] = test system: Pseudomonas aeruginosa Z61
# [33] = test system: Salmonella enterica serovar typhimurium MS7953s
# [34] = test system: Salmonella enterica subsp. enterica serovar Typhimurium ATCC 14028s
# [35] = test system: Staphylococcus aureus C623
# [36] = test system: Staphylococcus epidermidis C621
smiles,measurement,setting,value
CC[C@H](C)[C@H](NC(=O)CN)C(=O)N[C@@H](Cc1ccccc1)C(=O)N[C@@H](CO)C(=O)N[C@@H](CCCCN)C(=O)N[C@@H](CC(C)C)C(=O)N[C@@H](C)C(=O)NCC(=O)N[C@@H](CCCCN)C(=O)N[C@@H](CCCCN)C(=O)N[C@@H](CC(C)C)C(=O)N[C@@H](CCCCN)C(=O)N[C@@H](CC(N)=O)C(=O)N[C@@H](CC(C)C)C(=O)N[C@@H](CC(C)C)C(=O)N[C@H](C(=O)N[C@@H](CO)C(=O)NCC(N)=O)[C@@H](C)CC [GIFSKLAGKKLKNLLISG],MIC,Candida albicans,2.83 µM
same,MIC,[1],4 µM
same,MIC,Pseudomonas aeruginosa 1,8 µM
same,MIC,Pseudomonas aeruginosa 2,16 µM
same,MIC,[2],8 µM
same,MIC,[3],8 µM
same,MIC,[4],8 µM
same,MIC,Pseudomonas aeruginosa,8 µM
CC(C)C[C@H](NC(=O)CNC(=O)[C@H](CC(C)C)NC(=O)[C@H](Cc1c[nH]c2ccccc12)NC(=O)[C@H](CC(C)C)NC(=O)CNC(=O)[C@H](CC(C)C)NC(=O)[C@H](CCCCN)NC(=O)[C@H](CCCCN)NC(=O)CN)C(=O)N[C@@H](CCCCN)C(=O)N[C@@H](CCCCN)C(=O)NCC(N)=O [GKKLGLWLGLKKG],MIC,Escherichia coli K88,4 µM
same,MIC,[5],8 µM
same,MIC,[6],≥ 128 µM
same,MIC,[7],≥ 128 µM
same,MIC,[8],≥ 128 µM
same,MIC,[9],≥ 128 µM
same,MIC,[3],16 µM
same,MIC,[4],32 µM
same,MIC,[10],≥ 32 µM
same,MIC,[11],16 µM
same,MIC,[12],32 µM
same,MIC,[13],> 128 µM
same,MIC,[14],> 128 µM
same,MIC,[15],> 128 µM
same,MIC,[16],≥ 128 µM
CC(C)C[C@H](NC(=O)CNC(=O)[C@H](CCCCN)NC(=O)[C@H](CC(C)C)NC(=O)[C@H](CC(C)C)NC(=O)[C@H](CCCCN)NC(=O)[C@@H](N)CCCCN)C(=O)N[C@@H](CC(C)C)C(=O)N[C@@H](CCCCN)C(=O)NCC(=O)N[C@@H](Cc1c[nH]c2ccccc12)C(N)=O [KKLLKGLLKGW],MIC,Escherichia coli K88,16 µM
same,MIC,[5],≥ 64 µM
same,MIC,[6],≥ 128 µM
same,MIC,[7],≥ 128 µM
same,MIC,[8],≥ 128 µM
same,MIC,[9],≥ 128 µM
same,MIC,[3],32 µM
same,MIC,[4],64 µM
same,MIC,[10],≥ 64 µM
same,MIC,[11],≥ 32 µM
same,MIC,[12],32 µM
same,MIC,[13],> 128 µM
same,MIC,[14],> 128 µM
same,MIC,[15],> 128 µM
same,MIC,[16],≥ 128 µM
CC[C@H](C)[C@H](NC(=O)[C@H](C)NC(=O)[C@H](CC(N)=O)NC(=O)[C@@H](N)CCSC)C(=O)N[C@@H](CCCCN)C(=O)N[C@@H](CC(C)C)C(=O)N[C@@H](CC(C)C)C(=O)N[C@@H](CS)C(=O)N[C@@H](CCCN=C(N)N)C(=O)N[C@H](C(=O)O)C(C)C [MNAIKLLCRV],MIC,[17],21.5 µM
CC[C@H](C)[C@H](NC(=O)CNC(=O)[C@H](CC(=O)O)NC(=O)[C@H](CCCN=C(N)N)NC(=O)[C@@H](NC(=O)[C@H](CC(N)=O)NC(=O)[C@H](CCCN=C(N)N)NC(=O)CNC(=O)[C@@H](NC(=O)[C@H](CCCCN)NC(=O)[C@H](CCC(=O)O)NC(=O)[C@@H](NC(=O)[C@H](CCCCN)NC(=O)[C@H](CCCCN)NC(=O)[C@H](Cc1ccccc1)NC(=O)[C@@H](NC(=O)[C@H](CCCCN)NC(=O)[C@H](C)NC(=O)[C@@H](N)CCCN=C(N)N)[C@@H](C)CC)[C@@H](C)CC)C(C)C)C(C)C)C(=O)N[C@H](C(=O)N[C@@H](CCCCN)C(=O)N[C@@H](C)C(N)=O)[C@@H](C)CC [RAKIFKKIEKVGRNVRDGIIKA],MIC,[18],8 µM
same,MIC,[19],≥ 32 µM
same,MIC,[20],≥ 128 µM
same,MIC,[21],2 µM
same,MIC,[22],2 µM
same,MIC,[23],4 µM
same,MIC,[24],4 µM
same,MIC,[25],2 µM
same,MIC,[26],4 µM
same,MIC,[27],≥ 32 µM
CC(C)C[C@H](NC(=O)[C@H](Cc1ccc(O)cc1)NC(=O)[C@H](C)NC(=O)[C@@H](NC(=O)[C@H](CC(C)C)NC(=O)[C@H](C)NC(=O)[C@H](C)NC(=O)[C@H](CCCCN)NC(=O)CNC(=O)[C@@H](NC(=O)[C@H](Cc1cnc[nH]1)NC(=O)[C@H](CCCCN)NC(=O)CNC(=O)[C@@H](NC(=O)[C@H](Cc1cnc[nH]1)NC(=O)[C@@H](NC(=O)[C@H](C)NC(=O)[C@H](CCCCN)NC(=O)[C@H](CCCCN)NC(=O)[C@H](Cc1ccccc1)NC(=O)[C@H](Cc1c[nH]c2ccccc12)NC(=O)[C@H](CCCCN)NC(=O)CNC(=O)[C@H](Cc1c[nH]c2ccccc12)NC(=O)[C@@H](N)CCCN=C(N)N)[C@@H](C)O)C(C)C)C(C)C)[C@@H](C)O)C(N)=O [RWGKWFKKATHVGKHVGKAALTAYL],MIC,[28],0.701 µM
same,MIC,[29],1.4 µM
same,MIC,Candida albicans C627,5.61 µM
same,MIC,[30],1.4 µM
same,MIC,Escherichia coli DC2,1.4 µM
same,MIC,Escherichia coli UB1005,1.4 µM
same,MIC,[31],1.4 µM
same,MIC,[32],0.701 µM
same,MIC,[33],0.701 µM
same,MIC,[34],2.8 µM
same,MIC,[35],22.4 µM
same,MIC,[36],22.4 µM
CC[C@H](C)[C@H](NC(=O)[C@H](CCCN=C(N)N)NC(=O)[C@H](CCCN=C(N)N)NC(=O)[C@@H]1CCCN1C(=O)[C@@H]1CCCN1C(=O)[C@H](CCCN=C(N)N)NC(=O)[C@@H]1CCCN1C(=O)[C@H](CCCN=C(N)N)NC(=O)[C@@H]1CCCN1C(=O)[C@H](CC(C)C)NC(=O)[C@H](Cc1ccc(O)cc1)NC(=O)[C@@H]1CCCN1C(=O)[C@@H]1CCCN1C(=O)[C@H](CCCCN)NC(=O)[C@H](CC(=O)O)NC(=O)[C@@H](N)C(C)C)C(=O)N[C@@H](Cc1ccc(O)cc1)C(=O)N[C@@H](Cc1ccc(O)cc1)C(=O)N[C@@H](CCCN=C(N)N)C(=O)NCC(=O)O [VDKPPYLPRPRPPRRIYYRG],MIC,[17],0.12 µM
